Experimental data reported in patent publication US12486280B2, “CDK inhibitors and uses thereof” (California Institute of Technology, priority 2018, dated 2025).
In brackets after ≈: the same amount, converted by molar mass. Like-named read-outs stand apart in the source and are kept apart here.

Assays:
[1] = test system: CYP isozymes (IC50s averaged over the isozymes); test: CYP Enzymatic Inhibition Assay in human liver microsomes
[2] = Caco-2 Assay (Papp A to B); conditions: human, Caco-2, pH 7.4
Procedure: The degree of bi-directional human intestinal permeability for compounds was estimated using a Caco-2 cell permeability assay. Caco-2 cells were seeded onto polyethylene membranes in 96-well plates. The growth medium was refreshed every 4 to 5 days until cells formed a confluent cell monolayer. HBSS with 10 mM HEPES at pH 7.4 was used as the transport buffer. Compounds were tested at 2 μM bi-directionally in duplicate. Digoxin, nadolol and metoprolol were included as standards. Digoxin was tested at 10 μM bi-directionally in duplicate, while nadolol and metoprolol were tested at 2 μM in the A to B direction in duplicate. The final DMSO concentration was adjusted to less than 1% for all experiments. The plate was incubated for 2 hours in a CO2 incubator at 37° C., with 5% CO2 at saturated humidity. After incubation, all wells were mixed with acetonitrile containing an internal standard, and the plate was centrifuged at 4,000 rpm for 10 minutes. 100 μL supernatant was collected from each well and diluted with 100 μL distilled water for LC/MS/MS analysis. Concentrations of test and control compounds in starting solution, donor solution, and receiver solution were quantified by LC/MS/MS, using peak area ratio of analyte/internal standard. The apparent permeability coefficient Papp (cm/s) was calculated using the equation: Papp=(dCr/dt)×Vr/(A×C0) Where dCr/dt is the cumulative concentration of compound in the receiver chamber as a function of time (μM/s); Vr is the solution volume in the receiver chamber (0.075 mL on the apical side, 0.25 mL on the basolateral side); A is the surface area for the transport, which is 0.0804 cm^2 for the area of the monolayer; C0 is the initial concentration in the donor chamber (μM).

[3] = test system: drug-sensitive cell lines of Table 2 (EFM-19, MDA-MB-453, T-47D, ZR-75-1, NCI-H441, OVTOKO, NCI-H1838); test: Cell Line Growth Retardation Assay, sensitive cohort; format: cell-based, human; conditions: for IC50: Homo sapiens, geometric mean over sensitive cohort, 6 days growth, read-out: AvgSensIC50; for Ther Window: average IC50 drug-resistant group divided by average IC50 drug-sensitive group
Summary of the method: (§1)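 Growth over 6 days of compound exposure (0.0032–10 μM, five-fold steps) was scored by imaging cell counts at days 0 and 6, comparing population doublings with vehicle. Per-line IC50s from dose-response fits were averaged geometrically per cohort; therapeutic window is resistant/sensitive ratio.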

[4] = biological target: hERG potassium channels (Homo sapiens (Human), UniProt Q12809); test: hERG Inhibition Assay (QPatch automated patch clamp, CHO cells); conditions: percent of control current
Sequence of hERG potassium channels (Q12809 whole entry): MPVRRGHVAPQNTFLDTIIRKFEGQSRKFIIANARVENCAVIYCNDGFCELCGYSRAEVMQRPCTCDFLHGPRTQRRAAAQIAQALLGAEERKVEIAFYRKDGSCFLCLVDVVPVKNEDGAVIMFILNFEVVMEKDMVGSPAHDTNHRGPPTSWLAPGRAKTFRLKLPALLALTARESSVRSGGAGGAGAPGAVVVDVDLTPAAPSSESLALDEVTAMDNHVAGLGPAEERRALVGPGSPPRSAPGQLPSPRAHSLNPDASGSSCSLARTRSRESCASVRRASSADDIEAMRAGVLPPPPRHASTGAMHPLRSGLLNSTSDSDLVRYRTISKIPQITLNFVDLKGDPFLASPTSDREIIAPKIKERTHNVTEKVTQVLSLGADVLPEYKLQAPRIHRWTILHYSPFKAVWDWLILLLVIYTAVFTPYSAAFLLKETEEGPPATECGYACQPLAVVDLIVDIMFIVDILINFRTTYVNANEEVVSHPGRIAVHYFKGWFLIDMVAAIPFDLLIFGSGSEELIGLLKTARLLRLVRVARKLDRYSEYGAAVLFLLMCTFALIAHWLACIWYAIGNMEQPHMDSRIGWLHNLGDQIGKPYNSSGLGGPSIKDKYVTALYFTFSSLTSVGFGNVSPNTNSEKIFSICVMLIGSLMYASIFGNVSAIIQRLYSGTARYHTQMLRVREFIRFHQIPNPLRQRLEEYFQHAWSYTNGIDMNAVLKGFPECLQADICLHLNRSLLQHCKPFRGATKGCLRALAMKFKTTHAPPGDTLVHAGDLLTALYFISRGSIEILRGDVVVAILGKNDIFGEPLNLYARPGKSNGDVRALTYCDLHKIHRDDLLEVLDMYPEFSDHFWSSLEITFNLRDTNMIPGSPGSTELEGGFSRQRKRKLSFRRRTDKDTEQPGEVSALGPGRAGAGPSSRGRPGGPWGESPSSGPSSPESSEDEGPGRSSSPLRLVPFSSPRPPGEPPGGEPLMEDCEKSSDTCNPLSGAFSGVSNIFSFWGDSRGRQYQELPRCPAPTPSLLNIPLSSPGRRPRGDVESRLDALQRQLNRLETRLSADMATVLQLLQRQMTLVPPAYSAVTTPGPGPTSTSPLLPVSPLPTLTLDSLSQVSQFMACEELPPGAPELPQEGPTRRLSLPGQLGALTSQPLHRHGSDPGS
Procedure: Effects of compounds on hERG potassium channel conductance was assessed using the automated patch clamp method QPatch^HTX. Compounds were prepared at 10 mM stocks. CHO cells stably expressing hERG potassium channels were used for this assay. Cells were cultured in a humidified and air-controlled 5% CO2) incubator at 37° C. Compound stocks and the positive control Amitriptyline were dissolved in 100% DMSO to make various solution concentrations. These solutions were further diluted into extracellular solution to achieve final concentrations for testing. The final DMSO concentration in extracellular solution was 0.30%. The hERG QPatch^HTX assay was conducted at room temperature.
The following voltage command protocol was used: • From the holding potential of −80 mV, the voltage was first stepped to −50 mV for 80 ms for leak subtraction, and then stepped to +20 mV for 4,800 ms to open hERG channels. • After which, the voltage was stepped back down to −50 mV for 5,000 ms, causing a “rebound” or tail current, which was measured and collected for data analysis. • Finally, the voltage was stepped back to the holding potential of −80 mV for 3,100 ms.
For each experiment, three additions of 5 μL of the vehicle were applied, followed by 30 runs of the voltage command protocol for a baseline period. Then, the ascending doses of each compound were added with three repetitions (5 μL of compound each time).

[5] = Measurement of Compound Metabolic Stability in hepatocytes
Procedure: The metabolic stability of compounds was determined in hepatocytes from mice and rats. Compounds were diluted to 5 μM in Williams' Medium E from 10 mM stock solutions. 10 μL of each compound was aliquoted into a well of a 96-well plate and reactions were started by aliquoting 40 μL of a 625,000 cells/mL suspension into each well. The plate was incubated at 37° C. with 5% CO2. At each corresponding time point, the reaction was stopped by quenching with ACN containing internal standards (IS) at a 1:3. Plates were shaken at 500 rpm for 10 min, and then centrifuged at 3,220×g for 20 minutes. Supernatants were transferred to another 96-well plate containing a dilution solution. Supernatants were analyzed by LC/MS/MS. Compound half-life was estimated using the following equation:

[6] = test system: drug-resistant cell lines of Table 2 (NCI-H1437, OV207, HCC1806, NCI-H2172); test: Cell Line Growth Retardation Assay, resistant cohort; format: cell-based, human; conditions: Homo sapiens, […], geometric mean over resistant cohort; 6 days growth; read-out: AvgResIC50
Summary of the method: as §1

[7] = Compound Solubility Assay (kinetic solubility); format: physicochemical; conditions: kinetic from dmso stock
Procedure: The relative kinetic solubility of each compound was determined at both low (1.2) and neutral (7.4) pH. Compounds were prepared at 10 mM stocks. […] Compounds were allowed to shake at room temperature for 24 hours in 50 mM phosphate buffer pH 7.4, or in SGF buffer pH 1.2 at 37° C. for 24 hours.

[8] = biological target: CDK4 (Homo sapiens (Human), UniProt P11802); test: Cdk4 and 6 Enzymatic Inhibition Assay (radiometric 33PanQinase, Ki determination); format: biochemical
Sequence of CDK4 (P11802 whole entry): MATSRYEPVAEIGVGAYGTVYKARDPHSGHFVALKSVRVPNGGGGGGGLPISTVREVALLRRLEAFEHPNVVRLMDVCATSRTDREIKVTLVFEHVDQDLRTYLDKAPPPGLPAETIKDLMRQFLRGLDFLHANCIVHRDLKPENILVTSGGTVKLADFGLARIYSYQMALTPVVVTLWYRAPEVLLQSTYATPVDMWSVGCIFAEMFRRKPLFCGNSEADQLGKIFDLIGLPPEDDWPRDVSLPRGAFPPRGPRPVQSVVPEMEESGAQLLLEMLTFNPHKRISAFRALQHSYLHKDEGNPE
Sequence of CDK4 (P24385 whole entry partner): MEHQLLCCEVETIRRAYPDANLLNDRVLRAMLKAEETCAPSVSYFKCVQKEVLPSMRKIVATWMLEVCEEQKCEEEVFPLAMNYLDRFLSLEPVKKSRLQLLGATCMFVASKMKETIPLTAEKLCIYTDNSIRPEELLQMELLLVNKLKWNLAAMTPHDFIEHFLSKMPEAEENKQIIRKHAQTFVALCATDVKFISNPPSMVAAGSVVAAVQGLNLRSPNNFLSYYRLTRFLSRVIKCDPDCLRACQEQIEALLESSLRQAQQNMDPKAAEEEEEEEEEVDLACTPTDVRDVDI
Summary of the method: (§2)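 Compounds tested at ten concentrations spanning 2×10^−6 to 6×10^−11 M (final DMSO 1%). Kinase and substrate reacted with [γ-33P]-ATP in HEPES-NaOH pH 7.5 containing Mg2+/Mn2+, orthovanadate and DTT for 60 min at 30° C; incorporated 33Pi measured by microplate scintillation counting.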

[9] = biological target: CDK6 (Homo sapiens (Human), UniProt Q00534); test: as above; format: biochemical
Sequence of CDK6 (Q00534 whole entry): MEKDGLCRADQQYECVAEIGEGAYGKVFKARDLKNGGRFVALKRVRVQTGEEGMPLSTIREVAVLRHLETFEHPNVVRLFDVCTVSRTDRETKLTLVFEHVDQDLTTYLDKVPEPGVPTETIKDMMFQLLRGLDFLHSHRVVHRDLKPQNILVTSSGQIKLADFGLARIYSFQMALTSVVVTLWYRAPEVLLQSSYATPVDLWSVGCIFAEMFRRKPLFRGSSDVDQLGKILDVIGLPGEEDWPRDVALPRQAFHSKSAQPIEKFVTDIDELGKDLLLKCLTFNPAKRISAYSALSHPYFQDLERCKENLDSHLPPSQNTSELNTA
Sequence of CDK6 (P24385 whole entry partner): as the sequence (P24385 whole entry partner) above
Summary of the method: as §2

[10] = 50 mM phosphate buffer, pH 7.4, aqueous buffer, read-out: KS7
[11] = simulated gastric fluid, kinetic solubility, SGF buffer pH 1.2, 37° C., 24 hours, read-out: KS1

SMILES | IC50 at 10 min [1] | Papp A→B at 2 h, 2 μM [2] | IC50 [3] | Ther Window [3] | hERG [4] | half-life at 1 μM [5] | IC50 [6] | solubility kinetic at 24 h [7, 10] | solubility kinetic at 24 h [7, 11] | Ki [8] | Ki [9]
COC(=O)N1CC[C@@]2(CN(Cc3ccc(Nc4ncc(F)c(-c5cc(F)c6nc(C)n(C(C)C)c6c5)n4)nc3)CCO2)C1 [Compound A33] | 18.7 µM | 3.94 ×10⁻⁶ cm/s | 150 nM | 6.51 | 18.72% | 4.73 min | 1000 nM | 2.02 µM (≈ 1.2 µg/mL) | 200 µM (≈ 119 µg/mL) | 3.42 nM | 20.1 nM
CC(=O)N1CC[C@@]2(CN(Cc3ccc(Nc4ncc(F)c(-c5cc(F)c6nc(C)n(C(C)C)c6c5)n4)nc3)CCO2)C1 [Compound A36] | 23.4 µM | 0.59 ×10⁻⁶ cm/s | 250 nM | 3.57 | 21.60% | 30.8 min | 910 nM | 3.28 µM (≈ 1.89 µg/mL) | 200 µM (≈ 115 µg/mL) | 1.91 nM | 10.8 nM
CC(=O)N1CC[C@]2(CN(Cc3ccc(Nc4ncc(F)c(-c5cc(F)c6nc(C)n(C(C)C)c6c5)n4)nc3)CCO2)C1 [Compound A37, (S)-1-(9-((6-((5-fluoro-4-(4-fluoro-1-isopropyl-2-methyl-1H-benzo[d]imidazol-6-yl)pyrimidin-2-yl)amino)pyridin-3-yl)methyl)-6-oxa-2,9-diazaspiro[4.5]decan-2-yl)ethan-1-one] | 43.3 µM | 0.39 ×10⁻⁶ cm/s | 260 nM | 3.10 | 15.08% | 27 min | 810 nM | 109 µM (≈ 62.9 µg/mL) | 197 µM (≈ 114 µg/mL) | 1.6 nM | 6.86 nM
Cc1nc2c(F)cc(-c3nc(Nc4ccc(CN5CCO[C@]6(CCN(C)C6)C5)cn4)ncc3F)cc2n1C(C)C [Compound A38] | 80.2 µM | 0.17 ×10⁻⁶ cm/s | 220 nM | 3.81 | 10.65% | 38.2 min | 840 nM | 40.5 µM (≈ 22.2 µg/mL) | 200 µM (≈ 110 µg/mL) | 1.47 nM | 7.23 nM
Cc1nc2c(F)cc(-c3nc(Nc4ccc(CN5CCN(C)C(C)(C)C5)cn4)ncc3F)cc2n1C(C)C [Compound A43, 5-fluoro-4-(4-fluoro-1-isopropyl-2-methyl-1H-benzo[d]imidazol-6-yl)-N-(5-((3,3,4-trimethylpiperazin-1-yl)methyl)pyridin-2-yl)pyrimidin-2-amine] | 90.6 µM | 0.27 ×10⁻⁶ cm/s | 70 nM | 15.03 | 12.12% | 24.2 min | 1000 nM | 8.37 µM (≈ 4.36 µg/mL) | 200 µM (≈ 104 µg/mL) | 0.77 nM | 4.13 nM
Cc1nc2c(F)cc(-c3nc(Nc4ccc(CN5CCNC(C)(C)C5)cn4)ncc3F)cc2n1C(C)C [Compound A44, N-(5-((3,3-dimethylpiperazin-1-yl)methyl)pyridin-2-yl)-5-fluoro-4-(4-fluoro-1-isopropyl-2-methyl-1H-benzo[d]imidazol-6-yl)pyrimidin-2-amine] | 64.2 µM | 0.01 ×10⁻⁶ cm/s | 90 nM | 10.25 | 10.84% | 81.2 min | 960 nM | 6.3 µM (≈ 3.19 µg/mL) | 200 µM (≈ 101 µg/mL) | 0.7 nM | 3.04 nM
CCC[C@@]1(C)CN(Cc2ccc(Nc3ncc(F)c(-c4cc(F)c5nc(C)n(C(C)C)c5c4)n3)nc2)CCN1 [Compound A47, (S)-5-fluoro-4-(4-fluoro-1-isopropyl-2-methyl-1H-benzo[d]imidazol-6-yl)-N-(5-((3-methyl-3-propylpiperazin-1-yl)methyl)pyridin-2-yl)pyrimidin-2-amine] | 30 µM | 0.04 ×10⁻⁶ cm/s | 90 nM | 4.96 | 21.76% | 126 min | 460 nM | 1 µM (≈ 0.535 µg/mL) | 193 µM (≈ 103 µg/mL) | 1.01 nM | 5.17 nM
Cc1nc2c(F)cc(-c3nc(Nc4ccc(CN5CCO[C@@](C)(CCO)C5)cn4)ncc3F)cc2n1C(C)C [Compound A50, (S)-2-(4-((6-((5-fluoro-4-(4-fluoro-1-isopropyl-2-methyl-1H-benzo[d]imidazol-6-yl)pyrimidin-2-yl)amino)pyridin-3-yl)methyl)-2-methylmorpholin-2-yl)ethan-1-ol] | 35 µM | 3.25 ×10⁻⁶ cm/s | 70 nM | 9.87 | 18.96% | 17.5 min | 730 nM | 1.13 µM (≈ 0.608 µg/mL) | 200 µM (≈ 108 µg/mL) | 0.78 nM | 5.32 nM
Cc1nc2c(F)cc(-c3nc(Nc4ccc(CN5CCO[C@](C)(CC(=O)N(C)C)C5)cn4)ncc3F)cc2n1C(C)C [Compound A55, (R)-2-(4-((6-((5-fluoro-4-(4-fluoro-1-isopropyl-2-methyl-1H-benzo[d]imidazol-6-yl)pyrimidin-2-yl)amino)pyridin-3-yl)methyl)-2-methylmorpholin-2-yl)-N,N-dimethylacetamide] | 20.1 µM | 0.11 ×10⁻⁶ cm/s | 210 nM | 4.33 | 26.03% | 5.4 min | 900 nM | – | 196 µM (≈ 113 µg/mL) | 1.6 nM | 11.9 nM
CNC(=O)C[C@]1(C)CN(Cc2ccc(Nc3ncc(F)c(-c4cc(F)c5nc(C)n(C(C)C)c5c4)n3)nc2)CCO1 [Compound A59, (R)-2-(4-((6-((5-fluoro-4-(4-fluoro-1-isopropyl-2-methyl-1H-benzo[d]imidazol-6-yl)pyrimidin-2-yl)amino)pyridin-3-yl)methyl)-2-methylmorpholin-2-yl)-A-methylacetamide] | 21.2 µM | 0.7 ×10⁻⁶ cm/s | 210 nM | 4.76 | 25.3% | 3.51 min | 1000 nM | – | 199 µM (≈ 112 µg/mL) | 1.46 nM | 10.1 nM
Cc1nc2c(F)cc(-c3nc(Nc4ccc(CN5CCO[C@](C)(CC(=O)N6CCCC6)C5)cn4)ncc3F)cc2n1C(C)C [Compound A60, (R)-2-(4-((6-((5-fluoro-4-(4-fluoro-1-isopropyl-2-methyl-1H-benzo[d]imidazol-6-yl)pyrimidin-2-yl)amino)pyridin-3-yl)methyl)-2-methylmorpholin-2-yl)-1-(pyrrolidin-1-yl)ethan-1-one] | 18.1 µM | 1 ×10⁻⁶ cm/s | 270 nM | 3.70 | 28% | 3.32 min | 1000 nM | 3.12 µM (≈ 1.89 µg/mL) | 186 µM (≈ 113 µg/mL) | 2.14 nM | 14.5 nM
